Reference: patent publication US20170015666A1, “ENHANCER OF ZESTE HOMOLOG 2 INHIBITORS” (GLAXOSMITHKLINE INTELLECTUAL PROPERTY (NO.2) LIMITED, priority 2014, published 2017)
pIC50: −log10 of the molar value.

The compounds below were run against T1, EZH2 within the PRC2 complex (Homo sapiens, UniProt Q15910) (assay: EZH2 methyltransferase scintillation proximity assay (SPA) with PRC2 complex). Details: 3H-SAM, HeLa mononucleosome substrate, 30 min preincubation, 1 hour reaction.
T1 construct: FLAG; made in house; host or cells: Sf9 cells
Assay type: biochemical

T1 sequence (Q15910 whole entry): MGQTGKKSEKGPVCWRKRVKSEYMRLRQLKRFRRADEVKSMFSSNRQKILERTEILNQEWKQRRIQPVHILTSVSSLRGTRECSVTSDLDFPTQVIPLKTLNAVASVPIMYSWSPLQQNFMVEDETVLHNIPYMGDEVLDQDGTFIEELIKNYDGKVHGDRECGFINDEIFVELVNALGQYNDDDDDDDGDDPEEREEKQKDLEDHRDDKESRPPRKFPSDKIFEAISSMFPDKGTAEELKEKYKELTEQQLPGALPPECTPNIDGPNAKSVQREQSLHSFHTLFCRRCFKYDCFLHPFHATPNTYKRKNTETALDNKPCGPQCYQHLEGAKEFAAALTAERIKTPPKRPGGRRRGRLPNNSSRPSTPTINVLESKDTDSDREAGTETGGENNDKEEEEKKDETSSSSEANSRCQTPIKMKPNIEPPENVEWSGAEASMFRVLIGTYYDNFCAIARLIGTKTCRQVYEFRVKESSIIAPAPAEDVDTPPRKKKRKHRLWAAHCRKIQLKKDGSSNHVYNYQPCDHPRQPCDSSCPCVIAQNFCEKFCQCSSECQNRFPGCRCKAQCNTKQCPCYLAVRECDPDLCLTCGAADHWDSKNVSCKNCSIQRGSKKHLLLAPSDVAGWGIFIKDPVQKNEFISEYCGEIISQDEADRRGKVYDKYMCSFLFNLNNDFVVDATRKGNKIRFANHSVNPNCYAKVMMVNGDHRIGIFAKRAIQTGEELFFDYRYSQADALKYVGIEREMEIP
T1 sequence (O75530 whole entry partner): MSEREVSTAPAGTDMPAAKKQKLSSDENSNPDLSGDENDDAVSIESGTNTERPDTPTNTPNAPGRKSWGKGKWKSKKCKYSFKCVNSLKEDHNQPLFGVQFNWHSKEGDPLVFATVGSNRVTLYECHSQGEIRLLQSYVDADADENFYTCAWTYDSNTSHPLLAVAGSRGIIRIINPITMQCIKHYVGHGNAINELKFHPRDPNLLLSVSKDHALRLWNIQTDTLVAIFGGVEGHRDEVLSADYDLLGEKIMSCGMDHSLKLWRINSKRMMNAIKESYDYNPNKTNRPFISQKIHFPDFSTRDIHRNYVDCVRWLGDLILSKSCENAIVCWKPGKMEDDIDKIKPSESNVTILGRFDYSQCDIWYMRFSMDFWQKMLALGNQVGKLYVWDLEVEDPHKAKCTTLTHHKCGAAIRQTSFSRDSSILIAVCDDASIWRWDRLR
T1 sequence (Q15022 whole entry partner): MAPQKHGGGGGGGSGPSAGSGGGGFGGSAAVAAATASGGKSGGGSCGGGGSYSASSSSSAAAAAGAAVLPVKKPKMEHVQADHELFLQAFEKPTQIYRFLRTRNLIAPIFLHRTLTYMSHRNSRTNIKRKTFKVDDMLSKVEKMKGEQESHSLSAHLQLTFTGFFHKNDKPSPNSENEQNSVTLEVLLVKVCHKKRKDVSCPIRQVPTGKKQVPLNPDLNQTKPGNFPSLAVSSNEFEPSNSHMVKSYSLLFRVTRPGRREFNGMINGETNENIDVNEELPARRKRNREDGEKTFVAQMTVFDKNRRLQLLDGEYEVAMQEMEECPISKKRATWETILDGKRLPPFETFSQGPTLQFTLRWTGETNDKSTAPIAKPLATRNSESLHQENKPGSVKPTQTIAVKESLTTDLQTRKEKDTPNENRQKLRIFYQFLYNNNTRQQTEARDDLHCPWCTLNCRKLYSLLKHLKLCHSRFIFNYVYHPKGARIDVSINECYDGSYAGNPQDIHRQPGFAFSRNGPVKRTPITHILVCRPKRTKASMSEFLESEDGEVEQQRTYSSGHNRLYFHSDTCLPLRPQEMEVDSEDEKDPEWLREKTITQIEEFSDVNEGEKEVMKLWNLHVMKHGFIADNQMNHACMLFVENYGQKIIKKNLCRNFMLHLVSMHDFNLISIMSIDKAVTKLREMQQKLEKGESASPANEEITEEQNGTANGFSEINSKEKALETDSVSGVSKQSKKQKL
T1 sequence (Q09028 whole entry partner): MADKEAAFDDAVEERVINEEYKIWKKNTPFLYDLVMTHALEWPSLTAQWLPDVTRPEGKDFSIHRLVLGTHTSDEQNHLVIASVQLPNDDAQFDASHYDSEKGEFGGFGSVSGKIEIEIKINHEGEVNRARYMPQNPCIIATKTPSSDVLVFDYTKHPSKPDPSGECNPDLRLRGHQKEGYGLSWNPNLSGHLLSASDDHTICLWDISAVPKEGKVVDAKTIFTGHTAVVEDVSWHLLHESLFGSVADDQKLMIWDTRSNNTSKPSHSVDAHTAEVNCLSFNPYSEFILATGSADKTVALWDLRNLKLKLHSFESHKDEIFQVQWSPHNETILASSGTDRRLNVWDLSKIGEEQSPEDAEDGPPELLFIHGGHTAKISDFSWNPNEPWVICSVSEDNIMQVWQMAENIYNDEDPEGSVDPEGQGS
T1 sequence (Q6ZN18 whole entry partner): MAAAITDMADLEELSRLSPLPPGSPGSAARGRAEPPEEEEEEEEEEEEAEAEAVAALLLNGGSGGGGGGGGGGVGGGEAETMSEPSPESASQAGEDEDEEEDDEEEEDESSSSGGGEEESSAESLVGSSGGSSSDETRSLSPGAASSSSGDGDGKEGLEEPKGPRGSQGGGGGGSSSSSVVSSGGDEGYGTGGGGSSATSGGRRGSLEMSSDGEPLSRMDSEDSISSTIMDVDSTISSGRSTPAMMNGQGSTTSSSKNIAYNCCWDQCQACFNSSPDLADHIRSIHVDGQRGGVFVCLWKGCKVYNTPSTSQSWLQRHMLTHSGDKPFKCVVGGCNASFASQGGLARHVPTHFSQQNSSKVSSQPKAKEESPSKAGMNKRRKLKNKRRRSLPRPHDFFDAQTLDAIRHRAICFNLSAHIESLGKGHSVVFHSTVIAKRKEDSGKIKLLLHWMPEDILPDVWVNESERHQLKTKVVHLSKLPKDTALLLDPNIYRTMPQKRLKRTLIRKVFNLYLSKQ

**Q.** With Cc1cc2c(c(=O)[nH]1)CNC(=O)c1cc(Cl)cc3c1c(cn3C(C)C)C/C=C/CC2 [Example 1, (E)-2-chloro-4-isopropyl-12-methyl-9,10,15,16-tetrahydro-4H-pyrido[4′,3′:11,12][1]azacyclotridecino[5,4,3-cd]indole-14,17(6H,13H)-dione] as the compound, how does the pIC50 read?
**A.** Its pIC50 is 7.40.

**Q.** Cc1cc2c(c(=O)[nH]1)CNC(=O)c1cc(Cl)cc3c1c(cn3C(C)C)C/C=C\CC2 [Example 2, (Z)-2-chloro-4-isopropyl-12-methyl-9,10,15,16-tetrahydro-4H-pyrido[4′,3′:11,12][1]azacyclotridecino[5,4,3-cd]indole-14,17(6H,13H)-dione] was tested. Which pIC50 did it give?
**A.** The pIC50 was 6.50.

**Q.** Cc1cc2c(c(=O)[nH]1)CNC(=O)c1cc(Cl)cc3c1c(cn3C(C)C)CCCCC2 [Example 3, 2-chloro-4-isopropyl-12-methyl-7,8,9,10,15,16-hexahydro-4H-pyrido[4′,3′:11,12][1]azacyclotridecino[5,4,3-cd]indole-14,17(6H,13H)-dione] was tested. Which pIC50 did it give?
**A.** Its pIC50 is 6.30.

**Q.** Cc1cc2c(c(=O)[nH]1)CNC(=O)c1cc(-c3ccc(N4CCNCC4)nc3)cc3c1c(cn3C(C)C)C/C=C/CC2 [Example 4, (E)-4-isopropyl-12-methyl-2-(6-(piperazin-1-yl)pyridin-3-yl)-9,10,15,16-tetrahydro-4H-pyrido[4′,3′:11,12][1]azacyclotridecino[5,4,3-cd]indole-14,17(6H,13H)-dione] was tested. Which pIC50 did it give?
**A.** Its pIC50 is 7.49.

**Q.** With Cc1cc2c(c(=O)[nH]1)CNC(=O)c1cc(C#N)cc3c1c(cn3C(C)C)C/C=C/CC2 [Example 5, (E)-4-isopropyl-12-methyl-14,17-dioxo-6,9,10,13,14,15,16,17-octahydro-4H-pyrido[4′,3′:11,12][1]azacyclotridecino[5,4,3-cd]indole-2-carbonitrile] as the compound, how does the pIC50 read?
**A.** The pIC50 was 6.80.

**Q.** How did the pIC50 turn out when Cc1cc2c(c(=O)[nH]1)CNC(=O)c1cc(C#CC(C)(C)O)cc3c1c(cn3C(C)C)C/C=C/CC2 [Example 6, (E)-2-(3-hydroxy-3-methylbut-1-yn-1-yl)-4-isopropyl-12-methyl-9,10,15,16-tetrahydro-4H-pyrido[4′,3′:11,12][1]azacyclotridecino[5,4,3-cd]indole-14,17(6H,13H)-dione] was run?
**A.** Its pIC50 is 6.70.
